Source: patent publication US10654868B2, “Dihydropyrazole azepine compound serving as Akt inhibitor” (HARBIN ZHENBAO PHARMACEUTICAL CO., LTD., priority 2016, dated 2020)

Columns and labels:
Akt3 = molecular target: T1, Akt3 (Homo sapiens, UniProt Q9Y243); assay: Akt3 kinase inhibition, LANCE TR-FRET; assay type: biochemical; details: Akt3 2 nM, ATP 160 uM, 90 min at room temperature
T1 construct: purchased life technology lot 1715050B (lot number only, catalogue number not given)
Procedure: (§1) Study 1: The Inhibitory Effect of the Compounds on the Activity of Akt1, Akt2 and Akt3
Akt3 protein (life technology # lot 1715050B)
(§2) In this experiment, a homogeneous time-resolved fluorescence […] energy transfer (LANCE TR-FRET®) method was used. In the assay plate, enzymes, biotinylated polypeptide substrates and compound to be tested were mixed, and ATP was added to initiate the reaction and the mixture was incubated. After that, EDTA was added to terminate the reaction while an Eu-labeled antibody was added to carry out the reaction and the reaction was then detected. The assay plate was analyzed by PE company's Envision, and the analysis mode was TR-FRET. The data were represented by fluorescence signals at 665 nm and 615 nm, respectively.
(§3) Compound formulation: compound to be tested and the reference compound were diluted with 100% DMSO, the initial concentration of the compound was 10 uM, and diluted by 10 times in a 3-fold gradient. Transfer the compound to the cell plate and duplicate each well.
(§4) Kinase assay: the enzyme and substrate were mixed with different concentrations of pre-diluted compounds. […] Leave at room temperature for 15 min and diplicate each concentration. ATP was added, and the final concentrations were 36 uM, 360 uM and 160 uM in Akt1, Akt2, and Akt3 kinase reactions, respectively, and the reaction was carried out for 90 min at room temperature (in which negative and positive controls were set). After the reaction was completed, the antibody was added and the mixture was detected, and the cells were incubated for 60 min at room temperature, and then collected by Evnvision. Data analysis and fitting according to *Lfit5 software.

Akt2 = molecular target: T2, Akt2 (Homo sapiens, UniProt P31751); assay: Akt2 kinase inhibition, LANCE TR-FRET; assay type: biochemical; details: Akt2 2 nM, ATP 360 uM, 90 min at room temperature
T2 construct: purchased life technology lot 28870GG (lot number only, catalogue number not given)
T2 sequence (P31751 whole entry): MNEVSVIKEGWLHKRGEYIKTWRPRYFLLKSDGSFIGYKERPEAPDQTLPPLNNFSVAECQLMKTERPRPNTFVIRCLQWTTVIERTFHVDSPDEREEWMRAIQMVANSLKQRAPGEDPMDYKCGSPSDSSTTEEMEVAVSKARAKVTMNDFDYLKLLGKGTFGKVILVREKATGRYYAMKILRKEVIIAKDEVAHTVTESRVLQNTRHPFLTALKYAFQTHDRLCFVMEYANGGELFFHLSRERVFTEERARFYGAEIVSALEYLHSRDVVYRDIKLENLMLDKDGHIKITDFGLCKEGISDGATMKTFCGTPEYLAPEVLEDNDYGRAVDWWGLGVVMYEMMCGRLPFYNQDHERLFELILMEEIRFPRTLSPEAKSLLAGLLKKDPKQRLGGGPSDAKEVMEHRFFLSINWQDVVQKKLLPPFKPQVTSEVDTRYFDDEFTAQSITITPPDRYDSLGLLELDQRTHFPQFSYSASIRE
Procedure: as §1
Akt2 protein (life technology # lot 28870GG)
as §2, §3, §4

LNCaP cells = assay: LNCaP cell activity, CellTiter-Glo live cell detection; assay type: cell-based; details: Homo sapiens, 72 h, 1000 cells per well, incubated 3 days, starting concentration 10 uM
Procedure: Study 2: inhibitory effects of compounds on LNCaP cell activity
The amount of ATP directly reflects the number and the state of the cells, and the number of live cells can be detected by quantitatively measuring ATP. The live cell assay kit contains luciferase and its substrate. Through the participation of ATP, luciferase can catalyze the substrate, emit a stable optical signal, and the amount of ATP in the cell was determined by detecting the intensity of the signal. Wherein, the optical signal is proportional to the amount of ATP in the cell, and ATP is positively correlated with the number of live cells, so that the cell proliferation can be detected. The assay board is analyzed by PE company's Envision.
LNCaP cell was separately seeded in a 384-well plate, each well contains 1000 cells. The cell plate was placed in a carbon dioxide incubator and incubated overnight.
A duplicated experiment was performed with 10 concentrations of compound in a 3-fold dilution with Bravo.
Compound was transferred to the cell plate with a starting concentration of 10 uM. The cell plate was incubated in a carbon dioxide incubator for 3 days.
The Promega CellTiter-Glo reagent was added to the cell plate and incubated for 10 min at room temperature to stabilize the optical signal. Read the data by a PerkinElmer Envision multi-label analyzer.

Akt1 = molecular target: T3, Akt1 (Homo sapiens, UniProt P31749); assay: Akt1 kinase inhibition, LANCE TR-FRET; assay type: biochemical
T3 construct: purchased life technology lot11629928C (lot number only, catalogue number not given)
T3 sequence (P31749 whole entry): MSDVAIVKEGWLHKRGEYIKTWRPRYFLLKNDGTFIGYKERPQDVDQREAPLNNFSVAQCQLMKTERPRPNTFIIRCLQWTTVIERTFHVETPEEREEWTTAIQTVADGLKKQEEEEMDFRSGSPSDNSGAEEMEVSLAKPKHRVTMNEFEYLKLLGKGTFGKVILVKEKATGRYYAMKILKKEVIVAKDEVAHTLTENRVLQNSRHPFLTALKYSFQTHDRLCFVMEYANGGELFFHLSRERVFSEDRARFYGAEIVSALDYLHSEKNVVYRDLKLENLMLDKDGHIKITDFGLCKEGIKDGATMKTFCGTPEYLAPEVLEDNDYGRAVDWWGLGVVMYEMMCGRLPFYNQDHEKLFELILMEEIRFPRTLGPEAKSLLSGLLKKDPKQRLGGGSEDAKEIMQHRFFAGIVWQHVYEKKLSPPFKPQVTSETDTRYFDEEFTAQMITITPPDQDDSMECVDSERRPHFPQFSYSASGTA
Procedure: as §1
Akt1 protein (life technology # lot11629928C)
as §2, §3, §4

T1 sequence (Q9Y243 whole entry): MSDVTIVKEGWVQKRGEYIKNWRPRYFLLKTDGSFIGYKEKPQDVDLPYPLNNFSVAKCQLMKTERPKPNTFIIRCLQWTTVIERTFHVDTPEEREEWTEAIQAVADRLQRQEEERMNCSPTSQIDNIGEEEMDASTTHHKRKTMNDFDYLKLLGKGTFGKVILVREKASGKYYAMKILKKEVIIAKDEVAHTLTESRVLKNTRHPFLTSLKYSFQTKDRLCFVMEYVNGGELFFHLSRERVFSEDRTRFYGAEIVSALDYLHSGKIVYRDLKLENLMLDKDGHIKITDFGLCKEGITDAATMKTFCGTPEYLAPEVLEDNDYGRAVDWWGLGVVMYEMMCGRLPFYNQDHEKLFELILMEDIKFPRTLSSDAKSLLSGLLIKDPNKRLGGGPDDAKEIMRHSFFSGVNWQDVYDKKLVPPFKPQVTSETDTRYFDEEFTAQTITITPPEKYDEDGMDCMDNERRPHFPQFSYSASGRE

Compound | IC50 (Akt3) [nM] | IC50 (Akt2) [nM] | IC50 (LNCaP cells) [nM] | IC50 (Akt1) [nM]
Cc1cnn2c1-c1cc(C(=O)N[C@H](CN)Cc3cc(F)cc(F)c3)sc1OCC2 [Embodiment 40] | 170 | 66 | 87 | 0.87
NC[C@H](Cc1cc(F)cc(F)c1)NC(=O)c1cc2c(s1)OCCn1ncc(Br)c1-2 [Embodiment 41] | 57 | 39 | 62 | 1.45
N#Cc1cnn2c1-c1cc(C(=O)N[C@H](CN)Cc3ccc(F)c(F)c3)sc1OCC2 [Embodiment 42] | 416 | 900 | 663 | 27.5
